Data as given in paper PMC7811517, “Human neuronal signaling and communication assays to assess functional neurotoxicity” (Archives of Toxicology, 2020).
“And” between values parts separate entries of the source, which are not always exact repeats. Equal entries are not always repeated. “Also recorded” adds a separate entry of the source. Where two headings read alike, the source gives them in different places.

How the values were obtained:
P2X receptors [1] = assay: Ca2+-imaging of LUHMES neurons, P2X receptor antagonists against ATP or α,β-meATP response; format: cell-based, human; details: for pIC50 on the response triggered by ATP: 1 µM ATP (~EC75)
Method: (§1) The signals of individual cells could not be captured. […] The total recording never exceeded 8 min.
(§2) (Ritz et al. [2015]). […].

LUHMES neurons [2] = format: cell-based, human
Method: as §1

[3] = target: dopamine transporter (DAT) (Homo sapiens, UniProt Q01959); format: cell-based
Sequence of dopamine transporter (DAT) (Q01959 whole entry): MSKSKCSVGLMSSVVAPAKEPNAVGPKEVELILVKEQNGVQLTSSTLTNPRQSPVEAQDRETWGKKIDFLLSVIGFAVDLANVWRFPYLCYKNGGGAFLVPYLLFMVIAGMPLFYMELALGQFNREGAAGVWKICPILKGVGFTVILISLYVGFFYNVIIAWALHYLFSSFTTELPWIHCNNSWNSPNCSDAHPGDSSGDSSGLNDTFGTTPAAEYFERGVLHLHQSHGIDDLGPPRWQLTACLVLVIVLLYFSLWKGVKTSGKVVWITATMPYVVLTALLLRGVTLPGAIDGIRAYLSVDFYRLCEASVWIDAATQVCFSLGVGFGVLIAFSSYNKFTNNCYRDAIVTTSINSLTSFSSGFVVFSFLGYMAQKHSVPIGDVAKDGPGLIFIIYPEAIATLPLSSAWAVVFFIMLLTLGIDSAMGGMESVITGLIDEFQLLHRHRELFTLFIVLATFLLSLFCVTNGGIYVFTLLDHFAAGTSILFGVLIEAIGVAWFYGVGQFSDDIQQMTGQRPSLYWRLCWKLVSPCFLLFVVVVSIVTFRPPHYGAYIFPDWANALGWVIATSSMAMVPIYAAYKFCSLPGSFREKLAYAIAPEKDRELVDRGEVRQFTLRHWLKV
Method: LUHMES cells were differentiated for 6 days in a 24-well format and then treated with the indicated DAT inhibitors. […] After 10 min at 37 °C, the supernatant was removed and cells were washed with PBS. Then lysis buffer was added (PBS containing 0.2% Triton X-100). The amount of radioactive label taken up by the cells as well as the residual activity in the cell supernatant (plus washing buffer) was measured on a scintillation counter.

P2X receptors [4] = assay: Ca2+-imaging of LUHMES neurons, P2 receptor agonist responses; format: cell-based, human; details: for pEC50 in Ca2+-imaging: LUHMES neurons, agonist concentration-response
Method: as §1
(Ritz et al. [2015]). The logarithm of the half-maximal effective concentration (logEC50) between 0 and the upper limit (d), which was set to 1, is represented by ẽ, x denotes the concentration and b stands for the slope parameter (Ritz et al. [2015]).

LUHMES neurons [5] = assay: Manual patch clamp recordings of LUHMES neurons; format: cell-based, human
Text: Manual patch clamp was executed with an EPC 10 USB patch clamp amplifier and PatchMaster Software (version 2 × 90.5; HEKA Elektronik, Lambrecht, Germany). […] Intracellular solution contained [mM]: 107 K-gluconate, 10 KCl, 1 MgCl2, 10 HEPES, 5 EGTA, 4 Na2ATP and 0.2 NaGTP, pH 7.20. Recordings were obtained at room temperature. The cells were kept at a holding potential of − 70 mV. In voltage clamp mode NaV and voltage-gated potassium (KV) channels were activated for 300 ms by voltage pulses ranging from − 70 to + 70 mV in + 10 mV steps after a hyperpolarizing step to − 120 mV for 200 ms. To investigate the firing behavior, cells were stimulated in current clamp mode by hyper- and depolarizing current pulses of 300 ms duration. The pulse protocol was executed at 0.2 Hz. For agonist tests in current clamp and voltage clamp mode, cells were kept at a holding potential of − 70 mV and the compounds were applied for 5 s.
The raw data of the manual patch clamp recordings were analyzed in scripts written in R. For leak subtraction, the P/4 algorithms of PatchMaster and QPatch Software were used in the voltage clamp recordings for manual and automated patch clamp experiments, respectively.

NaV channels [6] = assay: Automated patch clamp recordings (QPatch) of NaV channel currents in LUHMES neurons; format: cell-based, human
NaV1.1 = details: ref McCormack et al. [2013]; cited from earlier work
NaV1.3 = details: ref McCormack et al. [2013]; cited from earlier work
NaV1.2 = details: ref McCormack et al. [2013]; cited from earlier work
NaV1.6 = details: ref McCormack et al. [2013]; cited from earlier work
NaV1.7 = details: ref McCormack et al. [2013]; cited from earlier work
rat hippocampal neurons = details: cited from earlier work
NaV channels [7] = assay: Ca2+-imaging of LUHMES neurons, NaV channel toxicants; format: cell-based, human
Method: as §1, §2

mice = details: mouse, in vivo; cited from earlier work
human P2X3 receptors = details: ref Garcia-Guzman et al. [1997]; cited from earlier work
[8] = 1 µM DA and 0.3 µM AMP, NNC 55–0396 30 µM

Compound: O=C(O)c1cc(C(=O)O)c(C(=O)N(Cc2cccc(Oc3ccccc3)c2)[C@H]2CCCc3ccccc32)cc1C(=O)O [A-317491]
- block of the response of ATP (P2X receptors [1]): up to 40%
- effect on ATP signals (P2X receptors [1]): only a weak partial effect
- effect on the response to α,β-meATP (P2X receptors [1]): potently and completely blocked
- pIC50 on the response triggered by α,β-meATP (P2X receptors [1]): 6.31 ± 0.05

Compound: CC(N)Cc1ccccc1 (centres unmarked) [AMP, amphetamine]
- main oscillation frequency (LUHMES neurons [2]; 1 µM DA (n = 6), 0.3 µM AMP (n = 10), FFT analysis): 0.234 ± 0.007 Hz and 0.2–0.23 Hz
- recordings with oscillations of the Ca2+-imaging signal (LUHMES neurons [2]; 1 µM DA (n = 125), 0.3 µM AMP (n = 50)): 94.0%
- effect on uptake of [3H]DA [3]: inhibited; also recorded: significantly reduced

Compound: Nc1ncnc2c1ncn2[C@@H]1O[C@H](COP(=O)(O)OP(=O)(O)OP(=O)(O)O)[C@@H](O)[C@H]1O [ATP, Adenosine 5'-triphosphate]
- pEC50 in Ca2+-imaging (P2X receptors [4]): 7.35 ± 0.08
- half-life of the fast decrease of the fluorescence signal (P2X receptors [4]; at 100 µM ATP): ~ 8 s
- response to agonist application (LUHMES neurons [5]; 100 µM ATP for 5 s, current clamp): triggered action potential firing

Compound: Nc1ncnc2c1ncn2[C@@H]1O[C@H](COP(=O)(O)OP(=O)(O)OP(=O)(O)O)[C@@H](OC(=O)c2ccc(C(=O)c3ccccc3)cc2)[C@H]1O [BzATP]
- pEC50 in Ca2+-imaging (P2X receptors [4]): 7.76 ± 0.11

Compound: NCCc1ccc(O)c(O)c1 [DA, dopamine]
- main oscillation frequency (LUHMES neurons [2]): 0.201 ± 0.002 Hz and 0.2–0.23 Hz
- recordings with oscillations of the Ca2+-imaging signal (LUHMES neurons [2]): 61.6% and 62%

Compound: O=C(Nc1ccc(S(=O)(=O)Nc2nccs2)cc1)C(c1ccccc1)c1ccccc1 [ICA-121431]
- pIC50, NaV current with 50% of channels inactivated (NaV channels [6]; prepulse to −55 mV): 6.33 ± 0.10 and 6.3
- IC50 (NaV1.1): 0.023 µM
- IC50 (NaV1.3): 0.013 µM
- IC50 (NaV1.2): 0.24 µM
- IC50 (NaV1.6): 13 µM
- IC50 (NaV1.7): 10 µM

Compound: CCN(CC)CC(=O)Nc1c(C)cccc1C [Lidocaine, lidocaine]
- pIC50, NaV current, 1st pulse (NaV channels [6]): 3.03 ± 0.07
- pIC50, NaV current, 10th pulse (NaV channels [6]): 3.57 ± 0.06
- pIC50 in rat hippocampal neurons (rat hippocampal neurons): ~ 3.4

Compound: CC(C)[C@H]1c2ccc(F)cc2CC[C@@]1(CCN(C)CCCc1nc2ccccc2[nH]1)OC(=O)C1CC1.Cl.Cl [NNC 55–0396, (1S,2S)-2-(2-(N-[(3-benzimidazol-2-yl)propyl]-N-methylamino)ethyl)-6-fluoro-1,2,3,4-tetrahydro-1-isopropyl-2-naphtyl cyclopropanecarboxylate dihydrochloride]
- signal amplitude compared to control, response to AMP (LUHMES neurons [2]): 2.1 ± 0.02%
- signal amplitude compared to control, response to DA (LUHMES neurons [2]): 3.0 ± 0.02%
- inhibition of amplitude, DA/AMP induced oscillations (LUHMES neurons [2]; [8]): > 95%
- signal amplitude compared to control, DA/AMP induced oscillations (LUHMES neurons [2]; [8]): 2–3%

Compound: Nc1ncnc2c1ncn2[C@@H]1O[C@H](COP(=O)(O)OP(=O)(O)OP(=O)(O)O)[C@H]2OC3(O[C@H]21)C([N+](=O)[O-])=CC(=[N+]([O-])[O-])C=C3[N+](=O)[O-] (some centres unmarked) [TNP-ATP, 2′,3′-O-(2,4,6-trinitrophenyl) adenosine 5′-triphosphate]
- pIC50 on the response triggered by α,β-meATP (P2X receptors [1]; 0.1 µM α,β-meATP (~EC75)): 7.5
- pIC50 on the response triggered by ATP (P2X receptors [1]): 6.1 and 6.05 ± 0.06

Compound: NC1=N[C@H](O)[C@H]2[C@H]3O[C@]4(O)O[C@@H]([C@@H](O)[C@@]2(N1)[C@@H]4O)[C@]3(O)CO [TTX, tetrodotoxin]
- pIC50 on the response triggered by VTD (NaV channels [7]): 7.9 and 7.93 ± 0.06
- pIC50, NaV current (pulse not specified) (NaV channels [6]): ~ 7.2
- pIC50, NaV current, 1st pulse (NaV channels [6]): 7.23 ± 0.05
- pIC50, NaV current, 10th pulse (NaV channels [6]): 7.26 ± 0.05
- effect on rapid transient inward currents (LUHMES neurons [5]): blocked
- signal amplitude compared to control, response to AMP (LUHMES neurons [2]): 21% and 20.5 ± 0.02%
- signal amplitude compared to control, response to DA (LUHMES neurons [2]): 69% and 68.6 ± 0.06%

Compound: COc1ccc(C(=O)O[C@H]2CC[C@@]3(C)[C@@H]4CC[C@H]5[C@]6(O)C[C@H](O)[C@@]7(O)[C@@H](CN8C[C@@H](C)CC[C@H]8[C@@]7(C)O)[C@]6(O)C[C@@]53O[C@]24O)cc1OC [VTD, veratridine]
- pEC50, rise of [Ca2+]i (NaV channels [7]; LUHMES neurons): 5.4 and 5.38 ± 0.03
- effect on action potential duration (LUHMES neurons [5]; 1 µM VTD, current clamp, n = 4): reversibly increased the action potential duration

Compound: COC(=O)[C@H]1[C@@H](OC(=O)c2ccccc2)C[C@@H]2CC[C@H]1N2C [cocaine]
- effect on uptake of [3H]DA [3]: inhibited; also recorded: significantly reduced

Compound: COC(=O)C1=C(C)NC(C)=C(C(=O)OC)C1c1ccccc1[N+](=O)[O-] [nifedipine]
- signal amplitude compared to control, response to AMP (LUHMES neurons [2]): 51% and 51.4 ± 0.03%
- signal amplitude compared to control, response to DA (LUHMES neurons [2]): 70% and 70.2 ± 0.05%

Compound: CN1Cc2c(N)cccc2C(c2ccccc2)C1 (centres unmarked) [nomifensine]
- effect on oscillations induced by AMP and DA (LUHMES neurons [2]): blocked

Compound: C[C@@H]1C[C@@H]2O[C@@H]3[C@@H](C)[C@H](O)[C@@H]4O[C@@]5(CCCO5)[C@@H](C)[C@H](C)[C@H]4O[C@H]3C[C@H]2O[C@H]2C[C@H]3O[C@H]4C/C=C\C[C@H]5O[C@H]6C=C[C@H]7O[C@H]8[C@H](O)[C@H]9O[C@@H](/C=C/[C@H](O)CO)C=CC[C@@H]9O[C@@H]8C[C@@H]7O[C@@H]6C=C[C@@H]5O[C@@H]4C[C@@H](O)[C@]3(C)O[C@@H]2C1 [pCTX-2, pacific ciguatoxin-2]
- amplitude of the evoked response (NaV channels [7]): 1779 ± 50 AU
- effect compared to control (NaV channels [7]): no effect
- effect on [Ca2+]i / Ca2+-imaging signal (NaV channels [7]): induced an increase of the baseline and oscillations; also recorded: increased [Ca^2+]i
- effect on the amplitude induced by 3 µM VTD (NaV channels [7]): significantly reduced
- acute toxicity (mice) (mice): 2.3 µg/kg

Compound: Cc1ccc(C(=O)Nc2ccc(S(=O)(=O)O)c3cc(S(=O)(=O)O)cc(S(=O)(=O)O)c23)cc1NC(=O)c1cccc(NC(=O)Nc2cccc(C(=O)Nc3cc(C(=O)Nc4ccc(S(=O)(=O)O)c5cc(S(=O)(=O)O)cc(S(=O)(=O)O)c45)ccc3C)c2)c1 [suramin]
- pIC50 on the response triggered by α,β-meATP (P2X receptors [1]; 0.1 µM α,β-meATP (~EC75)): 4.51 ± 0.03 and 4.5
- pIC50 on the response triggered by ATP (P2X receptors [1]): 4.09 ± 0.03 and 4.1
- pIC50 for human P2X3 receptors (human P2X3 receptors): approximately 4.8

Compound: Nc1ncnc2c1ncn2[C@@H]1O[C@H](COP(=O)(O)CP(=O)(O)OP(=O)(O)O)[C@@H](O)[C@H]1O [α,β-meATP]
- pEC50 in Ca2+-imaging (P2X receptors [4]): 7.52 ± 0.03 and 7.5
- pEC50, amplitude normalized to K+ amplitude (P2X receptors [4]; normalized to 30 mM K+ application, 5 differentiations): 7.58 ± 0.04

Compound: microcystin-LF
- effect alone in Ca2+-imaging (NaV channels [7]): no significate effect; also recorded: did not show any effects
- effect on the response to 3 µM VTD (NaV channels [7]): no significate effect; also recorded: did not show any effects
